Data on 24 molecules can be found in patent US9290490B2 (Merck Sharp & Dohme Corp., priority 2011, dated 2016).

Where a name gives a salt, the structure may show the parent alone. Read-outs that look alike come from different tables or passages of the source.

Data set [1] deals with recombinant human GST-Syk (Homo sapiens (Human), UniProt P43405). Put plainly: Homogeneous Time-Resolved Fluorescence (HTRF) Assay for the Recombinant Human Syk Enzyme. The data set is classed as biochemical. The following applies: recombinant human GST-Syk 5 pM, ATP 25 μM. As to the method: Homogeneous Time-Resolved Fluorescence (HTRF) Assay for the Recombinant Human Syk Enzyme:
A recombinant GST-hSyk fusion protein was used to measure potency of compounds to inhibit human Syk activity. The recombinant human GST-Syk (Carna Biosciences #08-176) (5 pM final concentration) was incubated with various concentrations of the inhibitor diluted in DMSO (0.1% final concentration) for 10 minutes at room temperature in 15 mM Tris-HCl (pH 7.5), 0.01% tween 20, 2 mM DTT in 384 well plate format. To initiate the reaction the biotinylated substrate peptide (250 nM final concentration) that contains the phosphorylation site for Syk was added with magnesium (5 mM final concentration) and ATP (25 μM final concentration). Final volume of the reaction was 10 μL. Phosphorylation of the peptide was allowed to proceed for 45′ at room temperature. To quench the reaction and detect the phosphorylated product, 2 nM of a Europium-anti-phosphotyrosine antibody (Perkin Elmer #AD0161) and 70 nM SA-APC (Perkin-Elmer #CR130-100) were added together in 15 mM Tris pH 7.5, 40 mM EDTA, 0.01% Tween 20. Final volume of the quenching solution was 10 μL. The resulting HTRF signal was measured after 30 minutes on a EnVision (Perkin-Elmer) reader using a time-resolved fluorescence protocol. […] IC50 values are also provided for the following representative compounds: […]
Background: In TR-FRET formats the signal depends on donor and acceptor labels being close together.

The test system of the next data set is PGD2. Conditions: intranasal, allergic rhinitis, phase I/II; cited from earlier work.
For data set [2] the following is noted: allergic rhinitis, phase II; cited from earlier work.
The mark [3] stands for this setting: 10-dose titration, read-out: rhSyk.
The mark [4] stands for this setting: read-out: rhSyk Activity (IC50).

Turning to `Cc1cc(Nc2nccc(C)n2)cc(-c2cnc(C(C)(O)C3CCC(NOC(=O)Cc4ccccc4)CC3)s2)c1` (centres unmarked) [Example 2-57], the IC50 was 0.123 µM in data set [1] (setting [3]) and 0.1 to 1 µM in data set [1] (setting [4]). Consider `Cc1cc(Nc2nccc(C(F)(F)F)n2)cc(-c2cnc(C(C)(O)C3CCC(C(=O)O)C3)s2)c1` (centres unmarked) [Example 3-4], for which, in data set [1] (setting [4]), the IC50 is at most 0.1 µM. Take `Cc1cc(Nc2nccc(C)n2)cc(-c2cnc(C[C@H]3CC[C@@H](C(=O)O)CC3)s2)c1` (single isomer, unassigned) [Example 13 (cis, faster eluting isomer), cis-4-[(5-{3-methyl-5-[(4-methylpyrimidin-2-yl)amino]phenyl}-1,3-thiazol-2-yl)methyl]cyclohexanecarboxylic acid]: in data set [1] (setting [4]), the IC50 was at most 0.1 µM.

For the molecule `Cc1cc(Nc2nccc(C(F)(F)F)n2)cc(-c2cnc([C@@](O)(CF)[C@H]3CC[C@H](C(=O)O)CC3)s2)c1` [Example 10], the IC50 in data set [1] (setting [4]) was at most 0.1 µM. Consider `Cc1cc(Nc2nccc(C(F)(F)F)n2)cc(-c2cnc(C(O)C3CCC(O)CC3(C)C)s2)c1` (centres unmarked) [Example 12, 4-{hydroxy[5-(3-methyl-5-{[4-(trifluoromethyl)pyrimidin-2-yl]amino}phenyl)-1,3-thiazol-2-yl]methyl}-3,3-dimethylcyclohexanol], for which the IC50 in data set [1] (setting [4]) is at most 0.1 µM.

As to `Cc1cc(Nc2nccc(C)n2)cc(-c2cnc(C(C)(O)[C@H]3CC[C@H](C(=O)O)CC3)s2)c1` (single isomer, unassigned) [Example 2-52, trans-4-[(1R or S)-hydroxy-1-(5-{3-methyl-5-[(4-methylpyrimidin-2-yl)amino]phenyl}-1,3-thiazol-2-yl)ethyl]cyclohexanecarboxylic acid], the IC50 in data set [1] (setting [3]) was 0.001 µM; in data set [1] (setting [4]), at most 0.1 µM. Turning to `CC(O)(c1ncc(-c2cc(Nc3nccc(C(F)(F)F)n3)cc(C(F)F)c2)s1)[C@H]1CC[C@H](C(=O)O)CC1` (single isomer, unassigned) [Example 18, trans-4-((1R or 1S)-{5-[3-(difluoromethyl)-5-{[4-(trifluoromethyl)pyrimidin-2-yl]amino}phenyl]-1,3-thiazol-2-yl}-1-hydroxyethyl)cyclohexanecarboxylic acid], the IC50 in data set [1] (setting [3]) is below 0.0005 µM; in data set [1] (setting [4]), at most 0.1 µM. `COC(=O)[C@@H]1CC(C(=O)c2ncc(-c3cc(C)cc(Nc4nccc(C(F)(F)F)n4)c3)s2)[C@H](O)C1(C)C` (stereo partly drawn) [Example 14, methyl (1,3-cis, 1,4-trans)-3-hydroxy-2,2-dimethyl-4-{[5-(3-methyl-5-{[4-(trifluoromethyl)-pyrimidin-2-yl]amino}phenyl)-1,3-thiazol-2-yl]carbonyl}cyclopentanecarboxylate]: the results for the IC50 in data set [1] (setting [3]) and in data set [1] (setting [4]) were 0.85 µM and 0.1 to 1 µM, respectively. Consider `Cc1cc(Nc2nccc(C(F)(F)F)n2)cc(-c2cnc(C(=O)C3CCC4(CC3)OCCO4)s2)c1` [Example 1-20, 1,4-dioxaspiro[4.5]dec-8-yl[5-(3-methyl-5-{[4-(trifluoromethyl)pyrimidin-2-yl]amino}phenyl)-1,3-thiazol-2-yl]methanone], for which the IC50 in data set [1] (setting [4]) was 0.1 to 1 µM. Turning to `Cc1cc(Nc2nccc(C(F)(F)F)n2)cc(-c2cnc([C@@](O)(C3CC3)[C@H]3CC[C@H](C(=O)O)CC3)s2)c1` (single isomer, unassigned) [Example 2 (from Intermediate 28 faster eluting enantiomer), trans-4-{(R or S)-cyclopropyl(hydroxy)[5-(3-methyl-5-{[4-(trifluoromethyl)pyrimidin-2-yl]amino}phenyl)-1,3-thiazol-2-yl]methyl}cyclohexanecarboxylic acid], the IC50 in data set [1] (setting [4]) is at most 0.1 µM. Turning to `Cc1cc(Nc2nccc(C(F)(F)F)n2)cc(-c2cnc(C(C)(O)C3CCC(C(=O)O)C3)s2)c1` (centres unmarked) [Example 3-3], the IC50 in data set [1] (setting [4]) is at most 0.1 µM. As for `Cc1cc(Nc2nccc(C)n2)cc(-c2cnc(C[C@H]3CC[C@H](C(=O)O)CC3)s2)c1` (single isomer, unassigned) [Example 13 (trans, slower eluting isomer), trans-4-[(5-{3-methyl-5-[(4-methylpyrimidin-2-yl)amino]-phenyl}-1,3-thiazol-2-yl)methyl]cyclohexanecarboxylic acid], the IC50 in data set [1] (setting [4]) is at most 0.1 µM. In the case of `Cc1cc(Nc2nccc(C)n2)cc(-c2cnc(C[C@]3(O)CC[C@@H](C(=O)O)CC3)s2)c1` [Example 5 (cis isomer), cis-4-hydroxy-4-[(5-{3-methyl-5-[(4-methylpyrimidin-2-yl)amino]phenyl}-1,3-thiazol-2-yl)methyl]cyclohexanecarboxylic acid], the IC50 in data set [1] (setting [4]) is at most 0.1 µM. On the same count and under the same terms, the figure for `Cc1cc(Nc2nccc(C(F)(F)F)n2)cc(-c2cnc(C(=O)C3CCC(=O)CC3(C)C)s2)c1` (racemic) [Example 11, N-(3-{2-[(2,2-dimethyl-4-oxocyclohexyl)carbonyl]-1,3-thiazol-5-yl}-5-methylphenyl)-4-(trifluoromethyl)pyrimidin-2-aminium trifluoroacetate] is 0.1 to 1 µM.

Regarding `C[C@](O)(c1ncc(-c2cc(CO)cc(Nc3nccc(C(F)(F)F)n3)c2)s1)[C@H]1CC[C@H](C(=O)O)CC1` (single isomer, unassigned) [Example 15, trans-4-[(1R or 1S)-1-hydroxy-1-{5-[3-(hydroxymethyl)-5-{[4-(trifluoromethyl)pyrimidin-2-yl]amino}phenyl]-1,3-thiazol-2-yl}ethyl]cyclohexanecarboxylic acid], the results for the IC50 in data set [1] (setting [3]) and in data set [1] (setting [4]) were below 0.0005 µM and at most 0.1 µM, respectively. For `Oc1cccc(Nc2ncc(F)c(Nc3cccc(O)c3)n2)c1` [Example R112], in the data set with PGD2, the “decrease in PGD2” value was “statistically significant decrease” and the “safety across a range of indicators” value is on record as “safe”. For the same molecule, the efficacy versus placebo result in data set [2] is “lack of efficacy”. As for `Cc1cc(Nc2nccc(C(F)(F)F)n2)cc(-c2cnc(C(C)(O)C3CCC(C(=O)O)C3)s2)c1` (centres unmarked) [Example 3-1], the IC50 in data set [1] (setting [4]) was at most 0.1 µM.

`Cc1cc(Nc2nccc(C(F)(F)F)n2)cc(-c2cnc(C(C)(O)C3CCC(C(=O)O)C3)s2)c1` (centres unmarked) [Example 3-2]: the values for the IC50 in data set [1] (setting [3]) and in data set [1] (setting [4]) were 0.002 µM and at most 0.1 µM, respectively. With `Cc1cc(Nc2ncc(Cl)c(C)n2)cc(-c2cnc(C(C)(O)C3CCC(C(=O)O)CC3)s2)c1` (centres unmarked) [Example 2-60], the IC50 is 0.005 µM in data set [1] (setting [3]) and at most 0.1 µM in data set [1] (setting [4]). Regarding `Cc1cc(Nc2nccc(C(F)(F)F)n2)cc(-c2cnc(C(O)[C@H]3CC[C@@H](C(N)=O)CC3)s2)c1` [Example 7 (cis isomer), cis-4-{hydroxy[5-(3-methyl-5-{[4-(trifluoromethyl)pyrimidin-2-yl]amino}phenyl)-1,3-thiazol-2-yl]methyl}cyclohexanecarboxamide], in data set [1] (setting [4]), the IC50 is at most 0.1 µM. Consider `Cc1cc(Nc2nccc(C(F)F)n2)cc(-c2cnc(C(C)(O)[C@H]3CC[C@H](C(=O)O)CC3)s2)c1` (single isomer, unassigned) [Example 2-77, trans-4-{(1R or S)-[5-(3-{[4-(difluoromethyl)pyrimidin-2-yl]amino}-5-methylphenyl)-1,3-thiazol-2-yl]-1-hydroxyethyl}cyclohexanecarboxylic acid], for which the IC50 is below 0.0005 µM in data set [1] (setting [3]) and at most 0.1 µM in data set [1] (setting [4]). On to `Cc1cc(Nc2nccc(C(F)F)n2)cc(-c2cnc(C(C)(O)[C@H]3CC[C@H](C(=O)O)CC3)s2)c1Br` (some centres unmarked) [Example 8-1], for which, in data set [1] (setting [4]), the IC50 is at most 0.1 µM.

Take `Cc1cc(Nc2nccc(C(F)(F)F)n2)cc(-c2cncs2)c1` [Intermediate 21, N-[3-methyl-5-(1,3-thiazol-5-yl)phenyl]-4-(trifluoromethyl)pyrimidin-2-amine]: the IC50 in data set [1] (setting [4]) was at most 0.1 µM. For the molecule `Cc1cc(Nc2nccc(C(F)(F)F)n2)cc(-c2cnc(C(F)C3CCC(C(=O)O)CC3)s2)c1` (centres unmarked) [Example 4-6], the figures for the IC50 in data set [1] (setting [3]) and in data set [1] (setting [4]) were 0.002 µM and at most 0.1 µM, respectively.
